In patent EP0429333B1, “Process for producing oxazopyrroloquinolines, novel oxazopyrroloquinolines, and use of oxazopyrroloquinolines” (priority 1989, dated 1991):

Columns and labels:
[1] = system: peritoneal macrophage; assay: Test on macrophage-chemotaxis after intraperitoneal administration; assay type: in vivo, C3H/He mice; conditions: for (2) Chemotaxis factor was present: 50 % zymosan treated serum, no administration 40; for (2) - (1) Chemotaxied macrophage: no administration 29; for Relative activity of group (%): no administration = 100; for (1) Chemotaxis factor was not present: total number of chemotaxied macrophages at 3 points, no administration 11
Experimental: Thirtytwo C3H/He mice (male, 7 weeks old, average body weight 20 g, supplied by Japan Charles River Co.) were divided into 4 groups (A - D) of 8 mice each.
A solution of OPQ in physiological saline of pH 7.0 was intraperitoneally administered to each mouse 7 times, namely, on the 1st day, 2nd day, 3rd day, 4th day, 5th day, 6th day and 7th day. Dosage for one administration per one mouse was as follows: That is, 0.2 ml of the solution containing 0.2 mg/ml of OPQ for group B, 0.2 ml of the solution containing 0.5 mg/ml of OPQ for group C, 0.2 ml of the solution containing 1.0 mg/ml of OPQ for group D and 0.2 ml of physiological saline for group A.
On the 8th day from starting of the experiment, the mice were anesthetized with ether and blood was drawn from carotid artery and 5 ml of cold Hanks solution was intraperitoneally injected and exudate cells for the abdominal cavity were collected. Exudate cells for the abdominal cavity of respective groups were gathered, washed three times with cold Hanks solution and suspended in RPMI medium at 5 x 10^5 cells/ml and macrophage-chemotaxis was measured. 50 % zymosan treated serum was used as chemotaxis factor and examination was conducted at three points for each sample. Number of chemotaxied macrophage was measured on microscope and 13 visual fields was examined for one point and the results are shown in Table 2. The value in the table is a total number of chemotaxied macrophages at 3 points for each sample. Preparation of Hanks solution and RPMI medium will be explained below.
Test on macrophage-chemotaxis was conducted in the same manner as in Example 36 except that hydroxymethyl OPQ was intraperitoneally administered to each mouce 3 times of the 1st day, the 2nd day and the 3rd day in the following dosage for one administration per one mouse: 0.2 ml of hydroxymethyl OPQ solution containing 0.5 mg/ml of hydroxymethyl OPQ for group B, 0.2 ml of the solution containing 1.0 mg/ml of hydroxymethyl OPQ for group C, and 0.2 ml of the solution containing 1.5 mg/ml of hydroxymethyl OPQ for group D and exudate cells for the abdominal cavity were collected on the 4th day from starting of experiment.
In Examples 36 - 40, macrophage activity was examined according to chemotaxis of peritoneal macrophage (literature 1) and activity of T cell and that of B cell were examined according to blast transformation reaction using concanavalin A and lipopolysaccharide, (LPS) as mitogen (literature 2). Literature 1: "Function of Macrophage and Method of Measurement of Function", pages 61-65 1985), edited by Educational Committee of Japan Bacteriological Society and published from Saikon Shuppan Co.) Literature 2: "New Method of Searching of Function of Lymphocytes", pages 350-355 (1987) edited by Junichi Yada and Michio Fujiwara and published from Chugai Igaku Co.

[2] = Solubility of the isolated compound, described in words; assay type: physicochemical
[3] = molecular target: T1, aldose reductase of rabbit lens (Oryctolagus cuniculus, UniProt P15122); assay: Inhibitory effect on aldose reductase of lens; assay type: biochemical; conditions: read-out: Degree of inhibition for aldose reductase (%)
T1 construct: to obtain electrophoretically homogeneous aldose reductase; from tissue; host or cells: rabbit lens
Experimental: (§1) 0.05 ml of 3mM NADPH, 0.1 ml of DL-glyceraldehyde and 0.04 ml of distilled water were added to 0.8 ml of 0.1M phosphoric acid buffer (pH 6.2) and left to stand at 25°C for 3 minutes. Then, 0.01 ml of the aldose reductase solution was added thereto to start reaction and decreasing of absorbance of 340 nm was measured at 25°C with time. Amount of enzyme which consumes 1 µmole of NADPH for 1 minute was taken as 1 unit.
Enzyme activity was measured under the same conditions as in the above measurement of aldose reductase activity except that 0.04 ml of aqueous solution of inhibitory substance in various concentrations was added in place of 0.04 ml of distilled water and degree of inhibition was calculated from comparison of the enzyme activity with the enzyme activity obtained in the absence of inhibitor. (1) OPQ, (2) methyl OPQ, (3) 1-methylpropyl OPQ, (4) 2-methylpropyl OPQ, (5) 2-carbamoylethyl OPQ, (6) hydroxymethyl OPQ, (7) 2-methylthioethyl OPQ, (8) 2-carboxyethyl OPQ, (9) 4-hydroxybenzyl OPQ, (10) 1-methylethyl OPQ, and (11) benzyl OPQ were used as inhibition substances and (12) PQQ was used as control.
Lens of rabbit was homogenized with 10mM phosphoric acid buffer (pH 7.0) containing 2mM dithiothreitol in an amount of two times the volume of the lens and subjected to centrifugation. The supernatant liquid was purified by affinity chromatography, gel filtration and chromatofocusing to obtain electrophoretically homogeneous aldose reductase. Using (1) OPQ, (2) 1-methylpropyl OPQ, (3) 2-methylpropyl OPQ, (4) hydroxymethyl OPQ, and (5) 1-methylethyl OPQ as inhibition substances, degree of inhibition of these substances for aldose reductase of rabbit lens was examined in the same manner in Example 32.

[4] = molecular target: aldose reductase of kidney (Canis lupus familiaris, UniProt A0A8I3P2L6); assay: Inhibitory effect on aldose reductase of kidney; assay type: biochemical, dog; conditions: read-out: Degree of inhibition for aldose reductase (%)
Experimental: as §1, with “Medulla of kidney of dog was homogenized with 10mM phosphoric acid buffer (pH 7.0) containing 2mM dithiothreitol in an amount of four times the volume of kidney medulla and subjected to centrifugation. The supernatant liquid was purified by affinity chromatography, gel filtration and chromatofocusing to obtain electrophoretically homogeneous aldose reductase. 0.05” for “0.05”

[5] = 5 mg/kg mouse x 3 days intraperitoneally
[6] = 10 mg/kg mouse x 3 days intraperitoneally
[7] = 15 mg/kg mouse x 3 days intraperitoneally

O=C(O)c1cc(C(=O)O)c2c(n1)c1nc(CO)oc1c1cc(C(=O)O)[nH]c12 [Hydroxymethyl OPQ, 5-Hydroxymethyl-2,8,10-tricarboxy-1H-oxazo[5,4-h]-pyrrolo[2,3-f]-quinoline]
(2) Chemotaxis factor was present [1, 5]: 61 | (2) - (1) Chemotaxied macrophage [1, 5]: 44 | Relative activity of group (%) [1, 5]: 152% | (1) Chemotaxis factor was not present [1, 5]: 17 | (2) Chemotaxis factor was present [1, 6]: 66 | (2) - (1) Chemotaxied macrophage [1, 6]: 56 | Relative activity of group (%) [1, 6]: 193% | (1) Chemotaxis factor was not present [1, 6]: 10 | (2) Chemotaxis factor was present [1, 7]: 48 | (2) - (1) Chemotaxied macrophage [1, 7]: 39 | Relative activity of group (%) [1, 7]: 134% | (1) Chemotaxis factor was not present [1, 7]: 9 | solubility in acetone and diethyl ether ([2]; acetone and diethyl ether): did not dissolve | solubility in lower alcohols ([2]; lower alcohols): dissolved | solubility in water ([2]; water): easily soluble | solubility under neutral and alkaline conditions ([2]; water, neutral and alkaline conditions): very easily soluble | inhibition at 1 µM ([3]; concentration 1x10^-6 M): 50.1% | inhibition at 2 µM ([3]; concentration 2x10^-6 M): 60.4% | inhibition at 0.5 µM ([3]; concentration 5x10^-7 M): 31.9% | inhibition at 1 µM ([4]; concentration 1x10^-6 M): 57.9% | inhibition at 2 µM ([4]; concentration 2x10^-6 M): 68.2% | inhibition at 0.2 µM ([4]; concentration 2x10^-7 M): 26.7% | inhibition at 0.5 µM ([4]; concentration 5x10^-7 M): 41.1%
